Experiment [1] has as its system U937. The experiment in a line: Anti-proliferation, intact cancer cell lines. The format is cell-based. The settings on record: Homo sapiens, U-937, 72 h. On the procedure:
(§1) The K562 (CML), KU812 (CML), MEG-01 (CML), MV4-11 (AML), MOLM14 (AML), U937 (AML), REC-1 (Human B-cell lymphoma cell), HL-60 (Human promyelocytic leukemia cells), MEC-1(CLL), CHL (Hamster lung cell), CHO (Hamster ovary cell) cell lines were obtained from American Type Culture Collection (Manassas, VA). All the cells were grown in a humidified incubator (Thermo, USA) at 37°C under 5% CO2. CHO cells were maintained in DMEM supplemented with 10% FBS, 1% penicillin/strepto-mycin. MV4-11 (AML) were grown in IMDM supplemented with 10% FBS, 1% penicillin/streptomycin. […] For suspension cells, cells were collected by spinning down at 800 rpm/min for 5 min before use.
(§2) A density of 1 × 10^4 to 2.5 × 10^4 cells/mL cells were mixed with various concentrations of compounds then 100 μL suspension was added to each well and incubated for 72 hours. Cell viability was determined using the CellTiter-Glo assay (Promega, USA) or CCK-8 assay (Beboy, China). Both assays were performed according to the manufacturer instructions. For CellTiter-Glo assay, luminescence was determined in a multi-label reader (Envision, PerkinElmer, USA). […] Data were normalized to control group (DMSO). GI50 were calculated using Prism 6.0 (GraphPad Software, San Diego, CA).

Experiment [2] concerns MEG-01. In words: Anti-proliferation, intact cancer cell lines. The format is cell-based. The settings on record: Homo sapiens, MEG-01, 72 h. On the procedure:
as §1, §2

Experiment [3] concerns KU812. The experiment in a line: Anti-proliferation, intact cancer cell lines. The settings on record: Homo sapiens; KU812 (CML), 72 hours. The format is cell-based. On the procedure: as §1, §2
Experiment [4] deals with K562. In words: Anti-proliferation, intact cancer cell lines. The conditions noted are these: Homo sapiens; K562 (CML), 72 hours. Type of experiment: cell-based. On the procedure: as §1, §2
In experiment [5] the test system is REC-1. The experiment in a line: Anti-proliferation, intact cancer cell lines. The format is cell-based. The conditions noted are these: Homo sapiens, Rec1, 72 h. On the procedure:
as §1, §2

The target in experiment [6] is PDGFRβ (Homo sapiens, UniProt P09619). In words: Promega ADP-Glo biochemical kinase assay. The settings on record: 100 μM ATP, read-out: IC50 against PDGFRβ. On the procedure: (§3) The ADP-Glo™ kinase assay (Promega, USA) was used to screen CHMFL-074 for its PDGFRα/PDGFRβ inhibition effects. […] The reaction in each tube was started immediately by adding ATP and kept going for an hour under 37°C. After the tube cooled for 5 minutes at room temperature, 5 μL solvent reactions were carried out in a 384-well plate. Then 5 μL of ADP-Glo™ reagent was added into each well to stop the reaction and consume the remaining […] within 40 minutes. […] Luminescence signal was measured with an automated plate reader (Envision, USA) and the dose-response curve was fitted using Prism 5.0 (GraphPad Software Inc., San Diego, CA).
Chain of PDGFRβ (P09619 33-1106): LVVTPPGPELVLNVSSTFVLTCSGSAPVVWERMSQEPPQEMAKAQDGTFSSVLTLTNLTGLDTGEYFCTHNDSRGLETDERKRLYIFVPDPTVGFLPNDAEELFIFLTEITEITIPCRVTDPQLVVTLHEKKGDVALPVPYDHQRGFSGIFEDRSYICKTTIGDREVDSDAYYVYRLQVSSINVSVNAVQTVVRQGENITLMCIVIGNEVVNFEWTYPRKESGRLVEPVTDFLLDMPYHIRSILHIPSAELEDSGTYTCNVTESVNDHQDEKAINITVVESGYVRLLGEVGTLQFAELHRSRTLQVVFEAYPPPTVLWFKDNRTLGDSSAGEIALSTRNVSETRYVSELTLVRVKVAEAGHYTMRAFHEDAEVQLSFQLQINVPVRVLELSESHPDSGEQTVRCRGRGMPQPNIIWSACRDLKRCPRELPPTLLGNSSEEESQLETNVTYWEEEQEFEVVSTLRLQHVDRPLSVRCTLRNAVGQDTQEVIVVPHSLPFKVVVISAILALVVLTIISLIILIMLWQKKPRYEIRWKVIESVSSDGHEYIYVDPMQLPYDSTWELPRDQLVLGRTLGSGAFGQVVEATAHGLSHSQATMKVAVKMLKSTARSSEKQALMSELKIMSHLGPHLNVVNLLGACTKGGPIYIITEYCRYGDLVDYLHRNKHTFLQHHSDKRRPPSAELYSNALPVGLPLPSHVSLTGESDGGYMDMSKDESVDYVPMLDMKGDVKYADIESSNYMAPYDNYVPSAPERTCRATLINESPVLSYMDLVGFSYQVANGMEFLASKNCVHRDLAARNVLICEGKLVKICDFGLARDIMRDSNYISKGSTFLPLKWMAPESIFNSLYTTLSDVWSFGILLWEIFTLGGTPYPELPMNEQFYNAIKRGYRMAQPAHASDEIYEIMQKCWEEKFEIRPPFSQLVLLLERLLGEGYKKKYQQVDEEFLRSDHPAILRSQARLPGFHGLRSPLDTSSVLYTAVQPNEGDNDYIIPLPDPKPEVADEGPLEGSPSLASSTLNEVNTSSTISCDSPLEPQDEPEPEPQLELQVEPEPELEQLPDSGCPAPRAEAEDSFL

Experiment [7] addresses PDGFRα (Homo sapiens, UniProt P16234). In words: Promega ADP-Glo biochemical kinase assay. The conditions noted are these: 100 μM ATP, read-out: IC50 against PDGFRα. On the procedure: as §3
On the technique in general: ADP-Glo turns the ADP formed in a reaction into a luminescent signal.

The target of experiment [8] is T1, KIT(V559D) (Homo sapiens, UniProt P10721, V559D).
T1 construct: purchased DiscoveRx (KinomeScan service)
T1 sequence (P10721 26-976 V559D): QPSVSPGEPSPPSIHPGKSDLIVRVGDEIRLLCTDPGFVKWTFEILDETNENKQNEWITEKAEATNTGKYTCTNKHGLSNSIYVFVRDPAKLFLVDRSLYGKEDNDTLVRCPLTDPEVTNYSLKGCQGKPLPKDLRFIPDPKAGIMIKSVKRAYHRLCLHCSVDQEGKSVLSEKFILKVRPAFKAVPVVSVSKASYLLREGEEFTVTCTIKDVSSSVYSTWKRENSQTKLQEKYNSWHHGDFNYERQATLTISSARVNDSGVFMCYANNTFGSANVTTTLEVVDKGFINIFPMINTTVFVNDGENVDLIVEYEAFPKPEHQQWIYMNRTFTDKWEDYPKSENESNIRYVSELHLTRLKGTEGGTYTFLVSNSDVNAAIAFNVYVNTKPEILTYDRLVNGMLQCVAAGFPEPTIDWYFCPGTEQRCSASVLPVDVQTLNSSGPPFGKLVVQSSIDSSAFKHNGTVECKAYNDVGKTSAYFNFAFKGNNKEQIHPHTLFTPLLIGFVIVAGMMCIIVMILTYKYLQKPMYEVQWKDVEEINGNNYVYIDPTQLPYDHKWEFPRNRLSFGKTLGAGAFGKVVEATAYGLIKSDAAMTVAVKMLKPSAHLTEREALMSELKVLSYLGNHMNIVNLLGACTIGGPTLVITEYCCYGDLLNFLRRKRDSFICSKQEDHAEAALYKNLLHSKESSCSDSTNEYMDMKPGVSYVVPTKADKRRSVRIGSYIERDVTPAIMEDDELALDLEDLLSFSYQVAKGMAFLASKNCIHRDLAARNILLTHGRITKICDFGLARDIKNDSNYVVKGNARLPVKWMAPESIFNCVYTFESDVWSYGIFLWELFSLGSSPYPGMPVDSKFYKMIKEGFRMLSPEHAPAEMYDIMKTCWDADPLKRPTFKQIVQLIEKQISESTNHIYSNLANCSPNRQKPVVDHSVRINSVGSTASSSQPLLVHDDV
The experiment in a line: KinomeScan profiling. The format is binding. The settings on record: 1 µM CHMFL-074; read-out: % Control.

Experiment [9] concerns the target T2, ABL2 (Homo sapiens, UniProt P42684).
T2 construct: purchased DiscoveRx (KinomeScan service)
In words: KinomeScan profiling. The settings on record: 1 µM CHMFL-074; read-out: % Control. The format is binding.

Experiment [10] deals with normal human B-cells purified from the peripheral blood. The experiment in a line: Proliferation assay on normal cells from peripheral blood. The format is cell-based. The settings on record: at 1 μM. On the procedure: (§4) Mononuclear cells were isolated from CML patients or healthy donors by density-gradient centrifugation through Ficoll (Beijing Solarbio Science & Technology Co., Ltd., Beijing, China) at 400 g for 30 min, followed by two washes in 1× phosphate-buffered saline. Cells were then cultured in liquid culture (RPMI1640, supplemented with 20% FBS). All blood samples from CML patients and healthy donors were obtained through written consent under approval of the Chinese Academy of Sciences Institutional Review Board. The ethics committees approved the consent Procedure. CML primary patient cells were tested in liquid culture (RPMI1640, supplemented with 20% FBS) in the presence of different concentrations of CHMFL-074. The trypan blue exclusion assay was used for quantification of cells for seeding for before Cell-Titer Glo assays (Promega, USA). The Cell-Titer Glo assay was used for proliferation studies and carried out according to manufacturer's instructions. Cell viability is reported as percentages of control (untreated) cells.

Experiment [11] addresses T3, RET(M918T) (Homo sapiens, UniProt P07949, M918T).
T3 construct: purchased DiscoveRx (KinomeScan service)
The experiment in a line: KinomeScan profiling. The format is binding. The conditions noted are these: 1 µM CHMFL-074; read-out: % Control.

Experiment [12] has as its system CHO. In words: Anti-proliferation, intact cancer cell lines. The format is cell-based, Chinese hamster. The settings on record: Cricetulus griseus, 72 h. On the procedure:
as §1, §2

Experiment [13] concerns the target T4, c-KIT (Homo sapiens, UniProt P10721).
T4 construct: made in house
The experiment in a line: Invitrogen Z'LYTE biochemical kinase assay. On the procedure:
The fluorescence resonance energy transfer-based Z'-LYTE kinase assay (Invitrogen, USA) was used to evaluate the IC50 value of CHMFL-074 for inhibition of ABL and KIT kinase. […] After 1 hour incubation, the reaction was developed and terminated, and the fluorescence measured with an automated plate reader (SpectraMax I3, USA). A dose-response curve was fitted using Prism 5.0 (GraphPad Software Inc., San Diego, CA).

Experiment [14] deals with T5, ABL1(Q252H)-phosphorylated (Homo sapiens, UniProt P00519, Q252H).
T5 construct: purchased DiscoveRx (KinomeScan service)
The experiment in a line: KinomeScan profiling. Type of experiment: binding. The conditions noted are these: 1 µM CHMFL-074; read-out: % Control.

The subject of experiment [15] is MEG-01. The experiment in a line: Colony formation assay. The settings on record: Homo sapiens. The format is cell-based. On the procedure: (§5) In brief, 1 mL of 3% agarose combined with 1 mL KU812, MEG01, or K562 growth media was used as the bottom agar in a 6-well plate. 800 cells in 1.7 mL growth media was combined with 0.3 ml of 3% agarose solution and plated on top of the bottom layer. Cells were maintained in a humidified 5% CO2 incubator at 37°C for 15 days, and continuously treated with serially diluted CHMFL-074 in a soft agar medium. On the 15th day, the number of colonies in each well were counted and each measurement was performed in triplicate.

Experiment [16] relates to KU812. The experiment in a line: Colony formation assay. Type of experiment: cell-based. The conditions noted are these: Homo sapiens. On the procedure: as §5
Experiment [17] has as its system K562. In words: Colony formation assay. The format is cell-based. The conditions noted are these: Homo sapiens. On the procedure:
as §5

The test system of experiment [18] is BCR-ABL positive CML patient primary cells. In words: Patient primary cell proliferation assay. The format is cell-based. The conditions noted are these: Homo sapiens, read-out: half effective inhibitory concentrations. On the procedure:
as §4

One may read the GI50 as the concentration giving 50% growth inhibition. Low values mean more potent growth inhibition, high ones less potent growth inhibition. What is called EC50 is the concentration at which the effect is half-maximal. Read a high EC50 as a less potent agent.

T4 sequence (P10721 26-976): as the sequence (P10721 26-976 V559D) above, with D534V counted along it
T2 sequence (P42684 whole entry): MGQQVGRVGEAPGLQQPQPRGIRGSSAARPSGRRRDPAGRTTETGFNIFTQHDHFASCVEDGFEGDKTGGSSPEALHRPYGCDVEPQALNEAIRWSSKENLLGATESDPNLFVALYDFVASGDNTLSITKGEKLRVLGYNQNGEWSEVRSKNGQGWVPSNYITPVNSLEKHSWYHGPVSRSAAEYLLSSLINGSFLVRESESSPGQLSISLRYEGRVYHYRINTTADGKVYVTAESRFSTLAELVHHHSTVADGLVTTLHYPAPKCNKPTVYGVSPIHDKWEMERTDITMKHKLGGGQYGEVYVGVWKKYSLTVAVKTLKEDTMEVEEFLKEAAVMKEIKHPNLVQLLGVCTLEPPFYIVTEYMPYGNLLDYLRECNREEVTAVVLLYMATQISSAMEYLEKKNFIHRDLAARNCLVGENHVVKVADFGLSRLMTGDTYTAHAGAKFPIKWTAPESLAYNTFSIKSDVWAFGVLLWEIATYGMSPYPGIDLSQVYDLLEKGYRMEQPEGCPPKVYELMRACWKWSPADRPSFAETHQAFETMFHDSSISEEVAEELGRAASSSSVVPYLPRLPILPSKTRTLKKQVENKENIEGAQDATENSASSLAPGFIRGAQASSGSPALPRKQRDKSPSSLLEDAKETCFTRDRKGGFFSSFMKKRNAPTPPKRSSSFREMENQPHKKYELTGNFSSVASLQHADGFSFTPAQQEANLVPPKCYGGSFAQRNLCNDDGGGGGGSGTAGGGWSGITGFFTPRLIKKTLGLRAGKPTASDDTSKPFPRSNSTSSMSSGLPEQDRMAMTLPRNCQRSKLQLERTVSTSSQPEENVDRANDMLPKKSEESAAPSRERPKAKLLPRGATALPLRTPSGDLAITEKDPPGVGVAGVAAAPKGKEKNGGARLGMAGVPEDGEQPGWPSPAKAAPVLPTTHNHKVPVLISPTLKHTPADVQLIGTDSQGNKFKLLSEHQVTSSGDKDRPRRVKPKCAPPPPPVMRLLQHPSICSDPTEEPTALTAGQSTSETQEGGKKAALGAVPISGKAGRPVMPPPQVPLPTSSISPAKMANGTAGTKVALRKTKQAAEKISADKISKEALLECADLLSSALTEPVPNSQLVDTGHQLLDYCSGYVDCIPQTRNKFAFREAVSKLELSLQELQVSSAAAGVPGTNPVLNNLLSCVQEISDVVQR
T3 sequence (P07949 29-1114 M918T): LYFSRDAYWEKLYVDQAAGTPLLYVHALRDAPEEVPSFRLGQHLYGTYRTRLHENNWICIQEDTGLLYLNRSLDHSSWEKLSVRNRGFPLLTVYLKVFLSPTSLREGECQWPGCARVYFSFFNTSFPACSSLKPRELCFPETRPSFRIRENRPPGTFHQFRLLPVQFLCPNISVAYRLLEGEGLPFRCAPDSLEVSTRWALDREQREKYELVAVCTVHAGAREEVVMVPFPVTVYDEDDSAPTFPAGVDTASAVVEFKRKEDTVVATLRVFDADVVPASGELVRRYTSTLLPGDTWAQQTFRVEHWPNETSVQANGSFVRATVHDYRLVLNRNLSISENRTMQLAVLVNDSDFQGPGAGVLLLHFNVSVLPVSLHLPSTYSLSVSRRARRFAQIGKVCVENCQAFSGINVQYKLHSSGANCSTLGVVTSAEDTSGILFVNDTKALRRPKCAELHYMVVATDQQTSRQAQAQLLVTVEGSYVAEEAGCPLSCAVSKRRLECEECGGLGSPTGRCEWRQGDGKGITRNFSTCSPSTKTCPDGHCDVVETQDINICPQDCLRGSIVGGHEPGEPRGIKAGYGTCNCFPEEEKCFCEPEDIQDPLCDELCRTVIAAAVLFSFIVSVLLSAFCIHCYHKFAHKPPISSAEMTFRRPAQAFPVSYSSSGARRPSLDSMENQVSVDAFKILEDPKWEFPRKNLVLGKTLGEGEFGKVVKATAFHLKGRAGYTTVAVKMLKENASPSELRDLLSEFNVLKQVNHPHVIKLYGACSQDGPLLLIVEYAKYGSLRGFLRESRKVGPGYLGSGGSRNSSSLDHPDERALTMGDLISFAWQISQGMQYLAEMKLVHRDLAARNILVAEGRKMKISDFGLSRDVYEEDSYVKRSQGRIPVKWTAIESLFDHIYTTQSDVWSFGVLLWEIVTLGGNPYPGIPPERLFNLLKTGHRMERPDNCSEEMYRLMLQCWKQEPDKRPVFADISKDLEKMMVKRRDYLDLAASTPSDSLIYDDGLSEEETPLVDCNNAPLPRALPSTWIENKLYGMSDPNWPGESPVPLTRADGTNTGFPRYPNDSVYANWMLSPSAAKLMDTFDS

For the molecule `Cc1ccc(NC(=O)c2ccc(CN3CCN(C)CC3)c(C(F)(F)F)c2)cc1OC1CCN(C(=O)c2cccnc2)CC1` [CHMFL-074], the GI50 in experiment [1] is above 10000 nM; in experiment [2], 18 nM; in [3], 57 nM; in experiment [4] it was 56 nM; in experiment [5], above 10000 nM; in [12] it was above 10000 nM. Further, the IC50 in experiment [6] came out at 88 nM; in experiment [7], 71 nM; in experiment [13] (ATP 300 μM, read-out: IC50 against c-KIT) it was 289 nM; in experiment [15] (MEG-01, read-out: anti-colony formation IC50) it was 12 nM; in [16] (KU812, read-out: anti-colony formation IC50) it was 8 nM; in experiment [17] (K562, read-out: anti-colony formation IC50), 4 nM. Also, in experiment [18], the IC50 was 300 to 1000 nM. Moreover, the remaining binding at 1 µM came out at 0.45% in [8], 0.8% in experiment [9], 0.15% in experiment [11] and 0.4% in [14]. In addition, the “inhibitory activity against normal human B-cells” value in experiment [10] is listed as “did not show any inhibitory activities”. Further, the “fold less active against c-KIT than ABL1 kinase” value in experiment [13] is reported as “about 12 fold”. In addition, the EC50 was 12 nM in experiment [15] (360 h, MEG-01, soft agar, 15 days); 8 nM in [16] (360 h, KU812, soft agar, 15 days); 4 nM in experiment [17] (360 h, K562, soft agar, 15 days).

These data come from PMC5216742, “Discovery and characterization of a novel potent type II native and mutant BCR-ABL inhibitor (CHMFL-074) for Chronic Myeloid Leukemia (CML)” (Oncotarget, 2016).
